The subject of assay [1] is Staphylococcus aureus. Put plainly: Antibacterial activity against Staphylococcus aureus NCIM 2010 assessed as bacterial growth inhibition incubated for 8 hrs by absorbance based assay. Format: functional.
Assay [2] deals with Bacillus subtilis. Description: Antibacterial activity against Bacillus subtilis NCIM 2079 assessed as bacterial growth inhibition incubated for 8 hrs by absorbance based assay. Format: functional.
The next assay concerns Escherichia coli. Put plainly: Antibacterial activity against Escherichia coli NCIM 2688 assessed as bacterial growth inhibition incubated for 8 hrs by absorbance based assay. Format: functional.
In the next assay the test system is Pseudomonas aeruginosa. Put plainly: Antibacterial activity against Pseudomonas aeruginosa NCIM 2036 assessed as bacterial growth inhibition incubated for 8 hrs by absorbance based assay. Format: functional.
Assay [3] deals with Staphylococcus aureus. Put plainly: Antibacterial activity against Staphylococcus aureus NCIM 2010 assessed as reduction in bacterial growth incubated for 8 hrs by absorbance based assay. Particulars: NCIM 2010, 8 h. Format: functional, organism-based.
For assay [4], the system named is Bacillus subtilis. Description: Antibacterial activity against Bacillus subtilis NCIM 2079 assessed as reduction in bacterial growth incubated for 8 hrs by absorbance based assay. The format is functional, organism-based. The note with it: NCIM 2079, 8 h.
In the next assay the test system is Leishmania amazonensis. Description: Anti-promastigote activity against Leishmania amazonensis (IFLA/BR/67/PH8) assessed as promastigote growth inhibition incubated for 72 hrs by microscopic analysis. The format is functional, organism-based. Particulars: Leishmania amazonensis, IFLA/BR/67/PH8, 72 h.
For assay [5], the system named is Mycobacterium tuberculosis. Put plainly: Antimycobacterial activity against Mycobacterium tuberculosis H37Ra incubated for 8 to 12 days by XTT reduction menadione assay. Format: functional. Particulars: time 8-12 day. For orientation: Tetrazolium dyes change colour on reduction, which living cells bring about.
The test system of the next assay is Epidermophyton floccosum. Put plainly: Antifungal activity against Epidermophyton floccosum 6999 assessed as fungal growth inhibition by spectrophotometry. Format: functional.
The subject of the next assay is Trichophyton rubrum. Description: Antifungal activity against Trichophyton rubrum 6753 assessed as fungal growth inhibition by spectrophotometry. Format: functional.
The test system of assay [6] is HepG2. Description: Cytotoxicity against human HepG2 cells assessed as cell growth inhibition incubated for 48 hrs by MTT assay. The format is functional, cell-based. The note with it: Homo sapiens, HepG2, 48 h.
Assay [7] in a line: Antiproliferative activity against human U-87 MG cells assessed as cell growth inhibition by MTT assay. The format is functional, cell-based, U-87MG ATCC.
The subject of another assay is NCI-H460. Description: Antiproliferative activity against human NCI-H460 cells assessed as cell growth inhibition by MTT assay.
For a further assay, the system named is MKN-45. Put plainly: Antiproliferative activity against human MKN-45 cells assessed as cell growth inhibition by MTT assay.
A further assay deals with SMMC-7721. Put plainly: Antiproliferative activity against human SMMC-7721 cells assessed as cell growth inhibition by MTT assay.
The next assay deals with A549. Description: cells. Particulars: Homo sapiens.
Another assay deals with HT-29. Description: cells. The note with it: Homo sapiens.
The subject of the next assay is PC-3. Description: Cytotoxicity against human PC-3 cells assessed as cell growth inhibition incubated for 2 days by MTT assay. The format is functional, cell-based. The note with it: PC-3, 48 h.
Assay [8] concerns HepG2. Description: Cytotoxicity against human HepG2 cells assessed as cell growth inhibition incubated for 2 days by MTT assay. The note with it: HepG2, 48 h. The format is functional, cell-based.
The test system of another assay is MCF7. Put plainly: Cytotoxicity against human MCF7 cells assessed as cell growth inhibition incubated for 2 days by MTT assay. The format is functional, cell-based. Particulars: MCF7, 48 h.
For the next assay, the system named is NCI-H1299. Description: Cytotoxicity against human NCI-H1299 cells assessed as cell growth inhibition incubated for 48 hrs by SRB assay. Format: functional, cell-based. The note with it: NCI-H1299, 48 h. A general note: Sulforhodamine B stains cellular protein and so reports cell mass.
Assay [9] in a line: Inhibition of CaCC (unknown origin) current potentiation. The arrangement: species or system Homo sapiens.

≈ marks a conversion by molar mass, not a printed value.

Description for A549: Antiproliferative activity against human A549 cells assessed as cell growth inhibition by MTT assay
Description for HT-29: Antiproliferative activity against human HT-29 cells assessed as cell growth inhibition by MTT assay

As a reminder, the MIC is the least concentration at which growth counts as inhibited. The term EC50 denotes the concentration that produces a half-maximal response. Regarding `CC1(C)S[C@@H]2[C@H](NC(=O)[C@H](N)c3ccc(O)cc3)C(=O)N2[C@H]1C(=O)O` [AMOXICILLIN], the MIC with Staphylococcus aureus [1] was 0.29 µg/mL (≈ 0.794 µM); in the assay on Bacillus subtilis [2], 0.32 µg/mL (≈ 0.876 µM); with Escherichia coli it was 0.32 µg/mL (≈ 0.876 µM); in the assay on Pseudomonas aeruginosa, over 10 µg/mL. Also, the EC50 in the assay with Staphylococcus aureus [3] and in the assay on Bacillus subtilis [4] was 0.15 µM throughout.
With `N#Cc1c(/N=C/c2c3ccccc3nc3ccccc23)sc2c1CCC2`, the EC50 with Leishmania amazonensis is over 500 µM.
As to `CO[C@H]1/C=C/O[C@@]2(C)Oc3c(C)c(O)c4c(O)c(c(/C=N/N5CCN(C)CC5)c(O)c4c3C2=O)NC(=O)/C(C)=C\C=C\[C@H](C)[C@H](O)[C@@H](C)[C@@H](O)[C@@H](C)[C@H](OC(C)=O)[C@@H]1C` [RIFAMPIN], the minimum inhibitory concentration (MIC) in assay [5] was 0.042 µg/mL (≈ 0.051 µM).
For `N#Cc1ccsc1/N=C/c1cccc([N+](=O)[O-])c1`, the MIC with Epidermophyton floccosum was found to be 64 µg/mL (≈ 249 µM); in the assay with Trichophyton rubrum, 128 µg/mL (≈ 498 µM).
As usually defined, the IC50 is the concentration at which inhibition is half-maximal. `COc1cccc2c1C(=O)c1c(O)c3c(c(O)c1C2=O)C[C@@](O)(C(=O)CO)C[C@@H]3O[C@H]1C[C@H](N)[C@H](O)[C@H](C)O1` [DOXORUBICIN]: in the assay on HepG2 [6], the concentration for half-maximal inhibition (IC50) was found to be 4.17 µM.
As to `CCOC(=O)c1c(N)sc(C(=O)Nc2ccccc2)c1-c1ccccc1`, the IC50 was determined as 7.42 µM in assay [7]; 8.59 µM in the assay with NCI-H460; 8.09 µM in the assay on MKN-45; 8.58 µM in the assay on SMMC-7721; 6.8 µM in the assay with A549; 7.49 µM in the assay on HT-29.
Take `N#Cc1c(NC(=O)/C=C/c2ccc(O)cc2)sc2c1CCCC2`: the results for the IC50 in the assay on PC-3, in the assay with HepG2 [8] and with MCF7 were 5.2 µM, 7.9 µM and 7.5 µM, respectively.
For the molecule `CCOC(=O)c1c(Nc2c3ccc(Cl)cc3nc3ccc(OC)cc23)sc2c1CCCCC2`, in the assay on Leishmania amazonensis, the EC50 stood at 26.6 µM.
For the molecule `CCOC(=O)c1c(NC(=O)/C=C/c2ccc(O)cc2)sc2c1CCCC2`, the IC50 is 6.29 µM with PC-3, 8.3 µM in the assay with HepG2 [8] and 8.27 µM in the assay on MCF7.
Turning to `Cc1cc(C)c2c(NCC(=O)Nc3sc4c(c3C#N)CCCC4)n[nH]c2n1`, in the assay on NCI-H1299, the IC50 was determined as 13.7 µM.
Take `C=CCNC(=S)Nc1sc2c(c1C(=O)OC)CCC(C(C)(C)C)C2` (configuration not stated): in assay [9], the IC50 turned out to be 49.7 µM.
`CC(C)(C)C1CCc2c(sc(NC3=NCC(CBr)S3)c2C(=O)O)C1` (configuration not stated): the IC50 in assay [9] turned out to be 24.8 µM.
`N#Cc1c(N)sc(C(=O)Nc2ccc(Cl)cc2)c1-c1ccccc1`: the IC50 in assay [7] came out at 0.59 µM; in the assay with NCI-H460 it was 0.76 µM; with MKN-45, 0.42 µM; in the assay on SMMC-7721 it was 0.69 µM; in the assay on A549, 0.7 µM; with HT-29 it was 0.65 µM.
Take `COc1ccc(/C=N/NCC(=O)Nc2sc3c(c2C#N)CCCC3)cc1`: the IC50 with NCI-H1299 was 18.5 µM.
As for `COC(=O)c1c(NC(=O)N[C@@H](C(=O)N[C@@H]2C(=O)N3[C@@H]2SC(C)(C)[C@@H]3C(=O)O)c2ccc(O)cc2)sc2c1CCCCCC2`, the MIC is 0.28 µg/mL (≈ 0.444 µM) in the assay on Staphylococcus aureus [1]; 2.57 µg/mL (≈ 4.07 µM) with Bacillus subtilis [2]; over 10 µg/mL in the assay on Escherichia coli; over 10 µg/mL in the assay on Pseudomonas aeruginosa; over 50 µg/mL in [5]. The 50% effective concentration (EC50) with Staphylococcus aureus [3] worked out at 0.16 µM; in the assay on Bacillus subtilis [4] it was 0.25 µM.
With `COC(=O)c1c(NC(=O)Cn2cc(CNC34CC5CC(CC(C5)C3)C4)nn2)sc2c1CCC(C)C2` (configuration not stated), in assay [9], the IC50 worked out at 5.4 µM.
For `N#Cc1c(NC(=O)CN/N=C/c2cccc([N+](=O)[O-])c2)sc2c1CCCC2`, the IC50 in the assay with NCI-H1299 amounted to 18.5 µM.
Turning to `COC(=O)c1ccsc1NC(=O)N[C@@H](C(=O)N[C@@H]1C(=O)N2C(C(=O)O)=C(C)CS[C@H]12)c1ccccc1`, the MIC was 0.75 µg/mL (≈ 1.41 µM) in the assay with Staphylococcus aureus [1]; 3.14 µg/mL (≈ 5.92 µM) with Bacillus subtilis [2]; over 10 µg/mL with Escherichia coli; over 10 µg/mL in the assay with Pseudomonas aeruginosa; over 50 µg/mL in [5]. Besides, the EC50 was determined as 0.26 µM in the assay on Staphylococcus aureus [3] and 0.21 µM in the assay on Bacillus subtilis [4].
On to `CC1=C(C(=O)O)N2C(=O)[C@@H](NC(=O)[C@H](N)c3ccccc3)[C@H]2SC1` [CEPHALEXIN ANHYDROUS], for which the MIC is 2.39 µg/mL (≈ 6.88 µM) in the assay on Staphylococcus aureus [1], 1.87 µg/mL (≈ 5.38 µM) with Bacillus subtilis [2], 4.94 µg/mL (≈ 14.2 µM) in the assay with Escherichia coli and over 10 µg/mL in the assay on Pseudomonas aeruginosa. Moreover, the results for the EC50 in the assay on Staphylococcus aureus [3] and in the assay with Bacillus subtilis [4] were 0.77 µM and 0.25 µM, respectively.
For the molecule `CCOC(=O)c1c(NC(=O)CC#N)sc(C(=O)Nc2ccc(Cl)cc2)c1-c1ccccc1`, the IC50 in assay [7] was 0.43 µM; in the assay on NCI-H460, 0.43 µM; in the assay on MKN-45 it was 0.39 µM; in the assay with SMMC-7721 it was 0.73 µM; in the assay with A549, 0.6 µM; in the assay with HT-29, 0.62 µM.
